This note sets out measurements from patent publication US20210180095A1 (SHELL OIL COMPANY, priority 2017, published 2021).

The subject of data set [1] is P. thermopropionicum HmfF R305Q variant. In words: Reconstituted holo-PtHmfF decarboxylation assay (FIG. 7), R305Q variant. Conditions: 1 mM substrate. It is filed as biochemical, Pelotomaculum thermopropionicum. Here is the method:
(§1) Mutagenesis primers were designed using the QuikChange® Primer Design Program (http://www.genomics.agilent.com/primerDesignProgram.jsp). PCR was performed using Phusion polymerase (NEB). Template was removed by DpnI (NEB) digest and the PCR product transformed into E. coli NEB5-alpha. Once the presence of the desired mutation was confirmed by DNA sequencing, the plasmid was transformed into E. coli BL21(DE3). The three variants transformed into E. coli BL21(DE3) includes one with a mutation of H297N, a second with H297F, and a third of R305Q.
(§2) Protein was expressed in BL21(DE3) grown at 37° C./180 rpm in LB broth supplemented with 50 μg/ml ampicillin At mid-log phase cells were induced with 0.25 mM IPTG and grown overnight at 15° C./180 rpm and then harvested by centrifugation (4° C., 7000 g for 10 minutes). Cell pellets were resuspended in buffer A (200 mM KCl, 1 mM MnCl2, 50 mM Tris pH 7.5) supplemented with DNase, RNase, lysozyme (Sigma) and Complete EDTA-free protease inhibitor cocktail (Roche). Cells were lysed using a French press at 1500 psi and the lysate incubated at 50° C. for 30 minutes to precipitate host proteins. The lysate was clarified by centrifugation at 125,000 g for 90 minutes. […]

Data set [2] relates to P. thermopropionicum HmfF wild-type (WT). In words: Reconstituted holo-PtHmfF decarboxylation assay (FIG. 7), wild-type. Conditions: 1 mM substrate; for observed kcat (decarboxylation activity): pH6, 50° C., anaerobic. It is filed as biochemical, Pelotomaculum thermopropionicum. Here is the method:
Reconstitution and Assays were performed anaerobically within a 100% N2-atmosphere glove box (Belle Technology, UK).
Holo-PtHmfF (e.g., an enzyme with its cofactors) was obtained by reconstituting single expressed HmfF with reduced prFMN under anaerobic conditions as described previously for the UbiD from E. coli in Marshall, S. A., Fisher, K., Ni Cheallaigh, A., White, M. D., Payne, K. A., Parker, D. A., Rigby, S. E., and Leys, D. (2017) Oxidative Maturation and Structural Characterization of Prenylated FMN Binding by UbiD, a Decarboxylase Involved in Bacterial Ubiquinone Biosynthesis. The Journal of biological chemistry 292, 4623-4637. In general, a reaction consisting of 1 mM FMN, 2 mM DMAP (Sigma), 50 μM Fre reductase and 50 μM UbiX in buffer A was started by the addition of 5 mM NADH. Following incubation, the reaction mixture was filtered through 10 k MWCO centrifugal concentrator to remove UbiX and Fre proteins. The filtrate containing the prFMN product was used to reconstitute anaerobic apo-HmfF (e.g., an enzyme without its cofactors) in a 2:1 molar ratio, with excess cofactor being removed using a PD25 desalting column (GE Healthcare). Use of holo-PtHmfF ensures the activity observed in the enzymatic activity assay below is minimally impacted by the presence or absence of cofactors.
Assays were performed by UV-vis spectroscopy using a Cary 50 Bio spectrophotometer (Varian).

In data set [3] the test system is P. thermopropionicum HmfF H297F variant. The data set is described as follows: Reconstituted holo-PtHmfF decarboxylation assay (FIG. 7), H297F variant. Type of data set: biochemical, Pelotomaculum thermopropionicum. To be noted: 1 mM substrate. Here is the method:
as §1, §2

Data set [4] has as its target T1, P. thermopropionicum HmfF (Pelotomaculum thermopropionicum, UniProt A5D4Z9). Conditions: substrate specificity.
Procedure: Subsequently, HmfF was purified and assayed under anaerobic conditions. […] All subsequent assays were performed at 50° C.
The next data set concerns G. kaustophilus HmfF. In words: HmfF carboxylation reactions assayed by HPLC. Type of data set: biochemical, Geobacillus kaustophilus. Conditions: 50 mM furoic acid, 3 M ammonium bicarbonate, 50° C. overnight. Here is the method: (§3) […] The sample was centrifuged at 16100 g to remove precipitate and […] added to 980 μl 50% v/v H2O/acetonitrile. Sample analysis was performed using an Agilent 1260 Infinity Series HPLC equipped with a UV detector. The stationary phase was a Kinetex […] C18 100A column, 250×4.6 mm The mobile phase was acetonitrile/water (50/50) with 0.1% TFA at a flow rate of 1 ml/min, and unless otherwise stated detection was performed at a wavelength of 265 nm.

In data set [5] the target is T1, P. thermopropionicum HmfF. In words: HmfF carboxylation reactions assayed by HPLC. It is filed as biochemical. Conditions: 50 mM furoic acid, 3 M ammonium bicarbonate, 50° C. overnight. Here is the method:
as §3

Data set [6] in a line: Effect of pH, temperature and oxygen on HmfF decarboxylation activity (UV-vis).

Turning to `O=C(O)c1ccc(C(=O)O)[nH]1` [PDCA, 2,5-pyrrol-dicarboxylic acid], in data set [1], the decarboxylation activity result is on record as “did not exhibit any measurable decarboxylation activity”. Besides, in data set [2], the “decarboxylation activity relative to the activity for FDCA” value is recorded as “about 2.5%” and the “observed kcat (decarboxylation activity)” value is “less than 0.1 kcat/s”. For the same molecule, the decarboxylation activity entry in data set [3] is reported as “did not exhibit any measurable decarboxylation activity”.
In the case of `O=C(O)c1ccoc1C(=O)O` [2,3-furandicarboxylic acid], the “decarboxylation by purified P. thermopropionicum HmfF” value in data set [4] was “no decarboxylation detected”.
`O=C(O)c1cccc(C(=O)O)n1` [2,6-pyridinedicarboxylic acid]: in data set [4], the “decarboxylation by purified P. thermopropionicum HmfF” value is reported as “no decarboxylation detected”.
On the same count and under the same terms, the entry for `O=C(O)c1cccc(C(=O)O)c1` [isophthalic acid] is “no decarboxylation detected”; for `O=C(O)c1ccc(CO)o1` [5-hydroxymethyl-2-furoic acid] it is “no decarboxylation detected”; for `O=C(O)/C=C/C=C/C(=O)O` [muconic acid] it is “no decarboxylation detected”.
Take `O=C(O)c1ccco1` [furoic acid]: the “carboxylation of furoic acid to FDCA (HPLC peak)” value (in the data set on G. kaustophilus HmfF; in data set [5]) was “co-migrates with an FDCA standard” throughout. In addition, the “decarboxylation by purified P. thermopropionicum HmfF” value in data set [4] is listed as “could not further decarboxylate”.
As for `O=C(O)c1ccc([N+](=O)[O-])o1` [5-nitro-2-furoic acid], the “decarboxylation by purified P. thermopropionicum HmfF” value in data set [4] is given as “no decarboxylation detected”.
`O=C(O)c1ccc(C(=O)O)o1` [FDCA, 2,5-furandicarboxylic acid]: the decarboxylation activity entry in data set [1] and in data set [3] was “did not exhibit any measurable decarboxylation activity” in each case. For the same molecule, the “observed kcat (decarboxylation activity)” value in data set [2] is given as “greater than 4 kcat/s”. Further, the “decarboxylation by purified P. thermopropionicum HmfF” value in data set [4] is “capable of decarboxylating”.
In the case of `O=C(O)c1ccc(C(=O)O)cc1` [terephthalic acid], the “decarboxylation by purified P. thermopropionicum HmfF” value in data set [4] is “no decarboxylation detected”.
Still for that read-out and setting: the value for `O=C(O)c1ccc(C(=O)O)s1` [2,5-thiophenedicarboxylic acid] was “no decarboxylation detected”.

B1: P. thermopropionicum HmfF: HmfF enzyme (2,5-furandicarboxylic acid decarboxylase) of SEQ ID NO:1 from the thermophilic bacterium Pelotomaculum thermopropionicum (protein, listed as Pelotomaculum thermopropionicum)
chain: MSHSLREWLAFLEGKGKLKRVRKEVDPVFEIAALGKQADGICSLLFERVKGYAVPVVTGLAGDRELFAAAMSVPVEGMLEKLAAAVENPVPCRLVSPDGAPVKECIIRENIDLLKMLPIPTHHAGDAGPYITAAILIARDPDSGVRNVSIHRLQVTGPDRLGILILPRHLWHFFGKAERAGRPLEIALAIGVHPAVLLASQATTRLGVDELEIASALLPQPLELVKCETVDVEVPAGAEIVIEGKILPGVREVEGPFGEYPRYYGPAAPRPVVEVTAVTHRRQPVYHTIIPASREHLLLGGIAREAVLLQTVRQAVPTVKNVHLTPGGSCRYHAVISIEKKHEGEAKNAIFAAFTSSSEVKHVVVVDHEINIFDPEEVEWAVATRCQAGRDVFIVKDAMGNRLDPSSRDGVSDKMGIDATIPLNLPGERFERISIPGLDKIKLADYLE
As to B1, the activation energy in data set [6] (Arrhenius plot of the 25° C.-50° C. data points) was 19.3 kcal/mol. Moreover, the “temperature maximum of enzyme activity” value in data set [6] (FDCA decarboxylation, anaerobic) was roughly 60 °C.
